From ChEMBL document CHEMBL6121001, “Benzimidazole analogues active against adult Schistosoma mansoni: SAR analyses, In vivo efficacy in mice, and preliminary mechanistic studies as potential inhibitors of hemozoin formation” (Eur J Med Chem, 2025) come the findings set out here.

The data set is described as follows: Apparent permeability of compound at 1 mM incubated for 4 hrs by PAMPA based LC-MS/MS analysis. It is filed as ADME. (In general: The PAMPA barrier holds no transporters, so it reflects passive diffusion.)

Structures are written as SMILES.

Usually Papp stands for a coefficient for how fast a substance crosses the barrier. Consider `FC(F)(F)c1ccc(Cn2c(NC3CCN(Cc4ccccc4)CC3)nc3ccccc32)cc1`, for which the apparent permeability coefficient (Papp) at 4 h, 1000 µM turned out to be 18 ×10⁻⁶ cm/s.
As to `Oc1ccccc1CN1CCC(Nc2nc3ccccc3n2Cc2ccc(C(F)(F)F)cc2)CC1`, the Papp at 4 h, 1000 µM amounted to 23 ×10⁻⁶ cm/s.
For `Oc1ncccc1CN1CCC(Nc2nc3ccccc3n2Cc2ccc(C(F)(F)F)cc2)CC1` the value was 0.18 ×10⁻⁶ cm/s.
